26 substances from the OligoGym collection can be followed below.

HELM strings list units from the 5' end as sugar, base in round brackets, then linkage (d deoxyribose, r ribose, m 2'-O-methyl, p phosphodiester). Strings are as the collection lists them; they lack the last nucleoside at the 3' end of the tested compound. [moe] = 2'-O-(2-methoxyethyl) (MOE); [sp] = phosphorothioate linkage; [m5C] = 5-methylcytosine

The data set concerns the target UBE3A-ATS. The data set can be described thus: mouse, dose not given. As to conditions: ASO.

As for “RNA1{[moe](T)[sp].[moe](T)p.[moe]([m5C])p.[moe](A)p.[moe]([m5C])p.[moe]([m5C])p.d(A)[sp].d(T)[sp].d(T)[sp].d(T)[sp].d(T)[sp].d(G)[sp].d(A)[sp].d([m5C])[sp].d([m5C])[sp].d(T)[sp].[moe](T)p.[moe]([m5C])[sp].[moe](T)}$$$$ (last 3' nucleoside missing)”, the 3 h FOB score amounted to 0 score 0-7.

Consider “RNA1{[moe](T)[sp].[moe](T)p.[moe]([m5C])p.[moe](A)p.[moe]([m5C])p.d([m5C])[sp].d(A)[sp].d(T)[sp].d(T)[sp].d(T)[sp].d(T)[sp].d(G)[sp].d(A)[sp].d([m5C])[sp].d([m5C])[sp].[moe](T)p.[moe](T)p.[moe]([m5C])[sp].[moe](T)}$$$$ (last 3' nucleoside missing)”, for which the 3 h FOB score was 1 score 0-7.

In turn, “RNA1{[moe](T)[sp].[moe](T)p.[moe]([m5C])p.[moe](A)p.d([m5C])[sp].d([m5C])[sp].d(A)[sp].d(T)[sp].d(T)[sp].d(T)[sp].d(T)[sp].d(G)[sp].d(A)[sp].d([m5C])[sp].[moe]([m5C])p.[moe](T)p.[moe](T)p.[moe]([m5C])[sp].[moe](T)}$$$$ (last 3' nucleoside missing)” had a 3 h FOB score of 1 score 0-7. Then “RNA1{[moe](T)[sp].[moe](T)p.[moe]([m5C])p.[moe](T)p.[moe](G)p.d(G)[sp].d(A)[sp].d(A)[sp].d(T)[sp].d([m5C])[sp].d(T)[sp].d(T)[sp].d(G)[sp].d(T)[sp].d(A)[sp].[moe](G)p.[moe](A)p.[moe](G)[sp].[moe](G)}$$$$ (last 3' nucleoside missing)”, with 3 score 0-7; and “RNA1{[moe](T)[sp].[moe](T)p.[moe]([m5C])p.[moe](T)p.[moe](T)p.d(G)[sp].d([m5C])[sp].d(T)[sp].d(G)[sp].d(A)[sp].d(T)[sp].d([m5C])[sp].d(A)[sp].d([m5C])[sp].d(A)[sp].[moe](T)p.[moe](T)p.[moe](A)[sp].[moe]([m5C])}$$$$ (last 3' nucleoside missing)”, with 0 score 0-7. Then “RNA1{[moe](T)[sp].[moe](T)p.[moe]([m5C])p.[moe](T)p.[moe]([m5C])p.d(A)[sp].d([m5C])[sp].d([m5C])[sp].d(T)[sp].d(A)[sp].d(G)[sp].d(G)[sp].d([m5C])[sp].d(T)[sp].d(G)[sp].[moe](G)p.[moe](G)p.[moe]([m5C])[sp].[moe]([m5C])}$$$$ (last 3' nucleoside missing)”, with 2.8 score 0-7; and “RNA1{[moe](T)[sp].[moe](T)p.[moe]([m5C])p.[moe]([m5C])p.[moe]([m5C])p.d(A)[sp].d(T)[sp].d(T)[sp].d([m5C])[sp].d(A)[sp].d(G)[sp].d([m5C])[sp].d(A)[sp].d([m5C])[sp].d(T)[sp].[moe](T)p.[moe](A)p.[moe](G)[sp].[moe](G)}$$$$ (last 3' nucleoside missing)”, with 3.3 score 0-7. Then “RNA1{[moe](T)[sp].[moe]([m5C])[sp].[moe]([m5C])[sp].[moe](T)[sp].[moe](T)[sp].d(T)[sp].d(A)[sp].d(G)[sp].d([m5C])[sp].d(A)[sp].d(T)[sp].d(T)[sp].d(T)[sp].d([m5C])[sp].d(T)[sp].[moe](A)[sp].[moe](T)[sp].[moe](T)[sp].[moe](A)}$$$$ (last 3' nucleoside missing)”, with 6.5 score 0-7. For the substance “RNA1{[moe](T)[sp].[moe]([m5C])p.[moe](A)p.[moe](A)[sp].d([m5C])[sp].d([m5C])[sp].d(A)[sp].d(A)[sp].d(T)[sp].d(T)[sp].d(T)[sp].d(G)[sp].[moe]([m5C])p.[moe](T)p.[moe](A)p.[moe](T)[sp].[moe](T)}$$$$ (last 3' nucleoside missing)”, the 3 h FOB score turned out to be 0.7 score 0-7. The value for “RNA1{[moe](T)[sp].[moe]([m5C])p.[moe](A)p.[moe](A)p.[moe]([m5C])[sp].d([m5C])[sp].d(A)[sp].d(A)[sp].d(T)[sp].d(T)[sp].d(T)[sp].d(G)[sp].d([m5C])[sp].[moe](T)p.[moe](A)p.[moe](T)[sp].[moe](T)}$$$$ (last 3' nucleoside missing)” was 3 score 0-7; that for “RNA1{[moe](T)[sp].[moe]([m5C])p.[moe](A)p.[moe](A)p.[moe]([m5C])p.[moe]([m5C])[sp].d(A)[sp].d(A)[sp].d(T)[sp].d(T)[sp].d(T)[sp].d(G)[sp].d([m5C])[sp].d(T)[sp].[moe](A)p.[moe](T)[sp].[moe](T)}$$$$ (last 3' nucleoside missing)” was 3 score 0-7. Then “RNA1{[moe](T)[sp].[moe]([m5C])p.[moe](A)p.[moe](A)p.[moe]([m5C])p.d(T)[sp].d(A)[sp].d(T)[sp].d(T)[sp].d(T)[sp].d([m5C])[sp].d(T)[sp].d(A)[sp].d(T)[sp].d([m5C])[sp].[moe](A)p.[moe](A)p.[moe](G)[sp].[moe](G)}$$$$ (last 3' nucleoside missing)”, with 0 score 0-7; and “RNA1{[moe](T)[sp].[moe]([m5C])p.[moe](A)p.[moe](A)p.[moe]([m5C])p.d([m5C])[sp].d(A)[sp].d(A)[sp].d(T)[sp].d(T)[sp].d(T)[sp].d(G)[sp].d([m5C])[sp].d(T)[sp].d(A)[sp].[moe](T)p.[moe](T)p.[moe]([m5C])[sp].[moe](A)}$$$$ (last 3' nucleoside missing)”, with 2 score 0-7; and “RNA1{[moe](T)[sp].[moe]([m5C])p.[moe](A)p.[moe](G)[sp].d(T)[sp].d(T)[sp].d(A)[sp].d(G)[sp].d(G)[sp].d(T)[sp].d(T)[sp].d(A)[sp].[moe](G)p.[moe](T)p.[moe](G)p.[moe]([m5C])[sp].[moe](A)}$$$$ (last 3' nucleoside missing)”, with 2.3 score 0-7. The value for “RNA1{[moe](T)[sp].[moe]([m5C])p.[moe](A)p.[moe](G)p.[moe](A)p.d(T)[sp].d(T)[sp].d([m5C])[sp].d([m5C])[sp].d(T)[sp].d(A)[sp].d(A)[sp].d(A)[sp].d(T)[sp].d(A)[sp].[moe]([m5C])p.[moe](G)p.[moe]([m5C])[sp].[moe](A)}$$$$ (last 3' nucleoside missing)” was 0 score 0-7; that for “RNA1{[moe](T)[sp].[moe]([m5C])p.[moe](A)p.[moe](G)p.[moe](T)[sp].d(T)[sp].d(A)[sp].d(G)[sp].d(G)[sp].d(T)[sp].d(T)[sp].d(A)[sp].d(G)[sp].[moe](T)p.[moe](G)p.[moe]([m5C])[sp].[moe](A)}$$$$ (last 3' nucleoside missing)” was 4.3 score 0-7. Consider “RNA1{[moe](T)[sp].[moe]([m5C])p.[moe](A)p.[moe](G)p.[moe](T)p.[moe](T)[sp].d(A)[sp].d(G)[sp].d(G)[sp].d(T)[sp].d(T)[sp].d(A)[sp].d(G)[sp].d(T)[sp].[moe](G)p.[moe]([m5C])[sp].[moe](A)}$$$$ (last 3' nucleoside missing)”, for which the 3 h FOB score was found to be 3 score 0-7. As to “RNA1{[moe](T)[sp].[moe]([m5C])p.[moe](A)p.[moe](G)p.[moe](T)p.[moe](T)p.d(A)[sp].d(G)[sp].d(G)[sp].d(T)[sp].d(T)[sp].d(A)[sp].d(G)[sp].d(T)[sp].d(G)[sp].d([m5C])[sp].[moe](A)p.[moe]([m5C])[sp].[moe](A)}$$$$ (last 3' nucleoside missing)”, the 3 h FOB score came out at 4.8 score 0-7.

Take “RNA1{[moe](T)[sp].[moe]([m5C])p.[moe](A)p.[moe](G)p.[moe](T)p.d(T)[sp].d(A)[sp].d(G)[sp].d(G)[sp].d(T)[sp].d(T)[sp].d(A)[sp].d(G)[sp].d(T)[sp].d(G)[sp].[moe]([m5C])p.[moe](A)p.[moe]([m5C])[sp].[moe](A)}$$$$ (last 3' nucleoside missing)”: the 3 h FOB score turned out to be 5 score 0-7. Then “RNA1{[moe](T)[sp].[moe]([m5C])p.[moe](A)p.[moe](G)p.[moe](T)p.d(T)[sp].d(A)[sp].d(G)[sp].d(T)[sp].d([m5C])[sp].d(A)[sp].d(G)[sp].d(G)[sp].d(T)[sp].d(T)[sp].[moe](A)p.[moe](G)p.[moe](G)[sp].[moe](G)}$$$$ (last 3' nucleoside missing)”, with 4.2 score 0-7. Substance “RNA1{[moe](T)[sp].[moe]([m5C])p.[moe](A)p.[moe](G)p.[moe]([m5C])p.d(A)[sp].d([m5C])[sp].d(T)[sp].d(T)[sp].d(A)[sp].d(G)[sp].d(G)[sp].d(T)[sp].d(A)[sp].d(G)[sp].[moe](T)p.[moe](T)p.[moe]([m5C])[sp].[moe](A)}$$$$ (last 3' nucleoside missing)” came in with a 3 h FOB score of 5 score 0-7. With “RNA1{[moe](T)[sp].[moe]([m5C])p.[moe](A)p.[moe](G)p.d(T)[sp].d(T)[sp].d(A)[sp].d(G)[sp].d(G)[sp].d(T)[sp].d(T)[sp].d(A)[sp].d(G)[sp].d(T)[sp].[moe](G)p.[moe]([m5C])p.[moe](A)p.[moe]([m5C])[sp].[moe](A)}$$$$ (last 3' nucleoside missing)”, the 3 h FOB score came to 4 score 0-7. The value for “RNA1{[moe](T)[sp].[moe]([m5C])p.[moe](A)p.[moe](T)[sp].d([m5C])[sp].d(T)[sp].d([m5C])[sp].d(G)[sp].d(G)[sp].d(G)[sp].d(T)[sp].d(A)[sp].[moe](T)p.[moe](A)p.[moe](T)p.[moe](A)[sp].[moe](A)}$$$$ (last 3' nucleoside missing)” was 5.3 score 0-7; that for “RNA1{[moe](T)[sp].[moe]([m5C])p.[moe](A)p.[moe](T)p.[moe](G)p.d(T)[sp].d(G)[sp].d([m5C])[sp].d(A)[sp].d(T)[sp].d(A)[sp].d([m5C])[sp].d([m5C])[sp].d([m5C])[sp].d(A)[sp].[moe](G)p.[moe](G)p.[moe](G)[sp].[moe](T)}$$$$ (last 3' nucleoside missing)” was 1 score 0-7; that for “RNA1{[moe](T)[sp].[moe]([m5C])p.[moe](A)p.[moe](T)p.[moe](T)p.d(A)[sp].d(T)[sp].d(T)[sp].d([m5C])[sp].d(T)[sp].d([m5C])[sp].d(T)[sp].d(A)[sp].d(G)[sp].d(T)[sp].[moe](G)p.[moe]([m5C])p.[moe]([m5C])[sp].[moe](T)}$$$$ (last 3' nucleoside missing)” was 1 score 0-7. Turning to “RNA1{[moe](T)[sp].[moe]([m5C])p.[moe](A)p.[moe](T)p.[moe]([m5C])[sp].d(T)[sp].d([m5C])[sp].d(G)[sp].d(G)[sp].d(G)[sp].d(T)[sp].d(A)[sp].d(T)[sp].[moe](A)p.[moe](T)p.[moe](A)[sp].[moe](A)}$$$$ (last 3' nucleoside missing)”, the 3 h FOB score came out at 3 score 0-7.
